According to US20220031684A1, “PROPHYLACTIC EFFICACY OF SEROTONIN 4 RECEPTOR AGONISTS AGAINST STRESS” (THE TRUSTEES OF COLUMBIA UNIVERSITY IN THE CITY OF NEW YORK, priority 2019, published 2022):

What was measured:
[1] = Chronic corticosterone (CORT) model: body weight; format: in vivo, mice; settings: male C57BL/6NTac; Flx 18 mg/kg/day in drinking water or RS-67,333 1.5 mg/kg/day in osmotic minipumps for 3 weeks prior to CORT
Procedure: (§1) This chronic CORT elevation dysregulates the hypothalamic-pituitary-adrenal axis (HPA) in a manner similar to that observed in clinical depression. The dose and duration of CORT treatment was selected based on previous studies. CORT (35 μg/ml, equivalent to about 5 mg/kg/day) dissolved in 0.45% hydroxypropyl-o-cyclodextrin (0-CD) or vehicle (VEH) (0.45% j-CD) was available ad libitum in the drinking water in opaque bottles to protect it from light. VEH- and CORT-treated water was changed every 3 days to prevent possible degradation. Contextual Fear Conditioning (CFC): A 3-shock CFC procedure was administered as previously published. Briefly, mice were placed into context A and administered 3 2-s shocks (0.75 mA) at 180 s, 240 s or 300 s following placement into context A. Mice were removed from the context 15 s following the termination of shock (at 317 s). For context retrieval, mice were placed back into context A for 300 s. Electrophysiology: Electrophysiology was conducted as previously described. Statistical Analysis: Results from data analyses are expressed as means±SEM. Alpha was set to 0.05 for all analyses. Data were analyzed using GraphPad Prism v7.0 or v8.0. For all experiments, unless otherwise noted, one- or two-way ANOVAs with repeated-measures were applied to the data as appropriate. […] Videos were scored using ANY-maze behavior tracking software (Stoelting, Wood Dale, Ill.). […]

C57BL/6NTac mice = experiment: Novelty-suppressed feeding (NSF) in CORT model; format: in vivo; settings: male C57BL/6NTac; Flx 18 mg/kg/day or RS-67,333 1.5 mg/kg/day for 3 weeks prior to CORT
Procedure: as §1

129S6/SvEv mice [2] = experiment: Forced swim test (FST) after CFC; format: in vivo
Procedure: (§2) This chronic CORT elevation dysregulates the hypothalamic-pituitary-adrenal axis (HPA) in a manner similar to that observed in clinical depression. The dose and duration of CORT treatment was selected based on previous studies. CORT (35 μg/ml, equivalent to about 5 mg/kg/day) dissolved in 0.45% hydroxypropyl-o-cyclodextrin (0-CD) or vehicle (VEH) (0.45% j-CD) was available ad libitum in the drinking water in opaque bottles to protect it from light. VEH- and CORT-treated water was changed every 3 days to prevent possible degradation. Contextual Fear Conditioning (CFC): A 3-shock CFC procedure was administered as previously published. Briefly, mice were placed into context A and administered 3 2-s shocks (0.75 mA) at 180 s, 240 s or 300 s following placement into context A. Mice were removed from the context 15 s following the termination of shock (at 317 s). For context retrieval, mice were placed back into context A for 300 s. Electrophysiology: Electrophysiology was conducted as previously described. Statistical Analysis: Results from data analyses are expressed as means±SEM. Alpha was set to 0.05 for all analyses. Data were analyzed using GraphPad Prism v7.0 or v8.0. For all experiments, unless otherwise noted, one- or two-way ANOVAs with repeated-measures were applied to the data as appropriate. Significant main effects and/or interactions were followed by Fisher's PLSD post hoc analysis or unpaired t-tests. Drugs: All drugs were prepared in physiological saline and all injections were administered intraperitoneally (i.p.) in volumes of 0.1 cc per […] body weight unless otherwise noted. Fluoxetine hydrochloride (Flx): Flx (BioTrend Chemicals AG, BG197, Zurich, Germany) was administered in the drinking water (18 mg/kg/day) for 3 weeks before the start of CORT. […] (R,S)-ketamine (K): (R,S)-ketamine (Ketaset III, Ketamine HCl injection, Fort Dodge Animal Health, Fort Dodge, Iowa) was administered in a single dose at 30 mg/kg of body weight 1 week before the start of CFC. […] PF-04995274: PF-04995274 (Sigma, Catalog No. 1331782-27-4, St. Louis, Mo.) was administered a single dose at 3 or 10 mg/kg of body weight 1 week before the start of CFC. PF-04995274 was dissolved in saline using an ultrasonic homogenizer (BioLogics, Model 3000, Manassas, Va.). Osmotic minipump implantation: ALZET osmotic minipumps (Model 2004, […], 28 days) were implanted subcutaneously under isoflurane anesthesia as previously described [S2]. Osmotic minipumps were rotated under the skin two to three times per week. Behavioral Assays: All experiments were approved by the Institutional Animal Care and Use Committee (IACUC) at the New York Psychiatric Institute (NYSPI). Elevated Plus Maze (EPM): Testing was performed as previously described [S3]. Briefly, the maze is a plus-cross-shaped apparatus consisting of four arms, two open and two enclosed by walls, linked by a central platform at a height of 50 cm from the floor. Mice were individually placed in the center of the maze facing an open arm and were allowed to explore the maze for 5 min. The time spent in and the number of entries into the open arms was used as an anxiety index. Videos were scored using ANY-maze behavior tracking software (Stoelting, Wood Dale, Ill.). Novelty-Suppressed Feeding: The NSF is a conflict test that elicits competing motivations: the drive to eat and the fear of venturing into the center of a brightly lit arena. The latency to feed is used as an index of anxiety-like behavior, because classical anxiolytic drugs decrease this measure. The NSF test was carried out during an 8 min period as previously described [S3]. Briefly, the testing apparatus consisted of a plastic box (50×50×20 cm), the floor of which was covered with approximately 2 cm of bedding. For 129S6/SvEv experiments, mice were food restricted for 12 h. For the C57BL/6N experiments, mice were food restricted for 24 h. […]

129S6/SvEv mice [3] = experiment: Open field (OF) after CFC; format: in vivo
Procedure: as §1, with “appropriate. Significant main effects and/or interactions were followed by Fisher's PLSD post hoc analysis or unpaired t-tests. Drugs: All drugs were prepared in physiological saline and all injections were administered intraperitoneally (i.p.) in volumes of 0.1 cc per […] body weight unless otherwise noted. Fluoxetine hydrochloride (Flx): Flx (BioTrend Chemicals AG, BG197, Zurich, Germany) was administered in the drinking water (18 mg/kg/day) for 3 weeks before the start of CORT. […] (R,S)-ketamine (K): (R,S)-ketamine (Ketaset III, Ketamine HCl injection, Fort Dodge Animal Health, Fort Dodge, Iowa) was administered in a single dose at 30 mg/kg of body weight 1 week before the start of CFC.” for “appropriate.”

129S6/SvEv mice [4] = experiment: Elevated plus maze (EPM) after CFC; format: in vivo
Procedure: as §2

129S6/SvEv mice [5] = experiment: Novelty-suppressed feeding (NSF) after CFC; format: in vivo
Procedure: as §2

sigma 1 = sigma 1 (Homo sapiens, UniProt Q99720); settings: cited from earlier work
sigma 2 = sigma 2 (Homo sapiens, UniProt Q5BJF2); settings: cited from earlier work
[6] = target: other neurotransmitter receptors; settings: except sigma receptors; cited from earlier work
[7] = FIG. 3 cohort, FIG. 3G, Fisher's PLSD
[8] = female 129S6/SvEv, 1.5 or 10 mg/kg
[9] = FIG. 3 cohort, FIG. 3M, Fisher's PLSD

sigma 2, sequence (Q5BJF2 whole entry): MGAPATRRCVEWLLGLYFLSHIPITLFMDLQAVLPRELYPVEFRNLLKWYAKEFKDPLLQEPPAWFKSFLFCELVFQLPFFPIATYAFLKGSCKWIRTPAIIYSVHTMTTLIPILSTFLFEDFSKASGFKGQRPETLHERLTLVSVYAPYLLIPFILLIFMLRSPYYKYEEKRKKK
sigma 1, sequence (Q99720 whole entry): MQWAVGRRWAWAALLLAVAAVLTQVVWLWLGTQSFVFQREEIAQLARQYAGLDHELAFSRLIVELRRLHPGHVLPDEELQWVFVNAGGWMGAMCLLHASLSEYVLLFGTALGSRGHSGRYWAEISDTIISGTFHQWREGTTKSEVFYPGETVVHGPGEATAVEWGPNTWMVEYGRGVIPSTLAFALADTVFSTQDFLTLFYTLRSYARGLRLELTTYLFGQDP

CCCCN1CCC(CCC(=O)c2cc(Cl)c(N)cc2OC)CC1.Cl [RS-67,333, 1-(4-amino-5-chloro-2-methoxyphenyl)-3-[1(n-butyl)-4-piperidinyl]-1-propanone HCl]
CORT-induced increase in body weight [1]: attenuated
latency to approach the food pellet (NSF) vs CORT+Veh (C57BL/6NTac mice): significantly decreased latency
p, FST Day 1 Immobility Time (sec), RS67333 (1.5 mg/kg) vs. RS67333 (10 mg/kg) (129S6/SvEv mice [2]; FIG. 2E, Fisher's LSD): 0.3430
p, FST Day 1 Immobility Time (sec), RS67333 (1.5 mg/kg) vs. RS67333 (30 mg/kg) (129S6/SvEv mice [2]; FIG. 2E, Fisher's LSD): 0.5994
p, FST Day 1 Immobility Time (sec), RS67333 (10 mg/kg) vs. RS67333 (30 mg/kg) (129S6/SvEv mice [2]; FIG. 2E, Fisher's LSD): 0.1099
p, FST Day 1 Immobility Time (sec), Saline vs. RS67333 (1.5 mg/kg) (129S6/SvEv mice [2]; FIG. 2E, Fisher's LSD): 0.3784
p, FST Day 1 Immobility Time (sec), Saline vs. RS67333 (10 mg/kg) (129S6/SvEv mice [2]; FIG. 2E, Fisher's LSD): 0.0028
p, FST Day 1 Immobility Time (sec), Saline vs. RS67333 (30 mg/kg) (129S6/SvEv mice [2]; FIG. 2E, Fisher's LSD): 0.8437
p, FST Day 2 Immobility Time (min 3-6) (sec), RS67333 (1.5 mg/kg) vs. RS67333 (10 mg/kg) (129S6/SvEv mice [2]; [7]): 0.0235
p, FST Day 2 Immobility Time (min 3-6) (sec), Saline vs. RS67333 (1.5 mg/kg) (129S6/SvEv mice [2]; [7]): 0.4916
p, FST Day 2 Immobility Time (min 3-6) (sec), Saline vs. RS67333 (10 mg/kg) (129S6/SvEv mice [2]; [7]): 0.1991
immobility, FST days 1 and 2 (129S6/SvEv mice [2]; female 129S6/SvEv, 1.5 or 10 mg/kg vs saline): comparable levels of immobility
immobility time, FST Day 2 (129S6/SvEv mice [2]; male 129S6/SvEv, RS-67,333 1.5, 10 or 30 mg/kg vs saline): comparable
immobility, FST Day 1 vs saline (129S6/SvEv mice [2]; male 129S6/SvEv, single injection 1 week before CFC, 10 mg/kg): significantly less immobile
p, OF Time in Center, Saline vs. RS67333 (10 mg/kg) (129S6/SvEv mice [3]; FIG. 2I, t-test): 0.2475
time spent in the center of the OF (129S6/SvEv mice [3]; [8]): did not alter
time in the center of the OF arena vs saline (129S6/SvEv mice [3]; male 129S6/SvEv, 10 mg/kg): comparable amount of time
p, EPM Time in Open, Saline vs. RS67333 (10 mg/kg) (129S6/SvEv mice [4]; FIG. 2J, t-test): 0.2069
p, EPM Entries into Open, Saline vs. RS67333 (10 mg/kg) (129S6/SvEv mice [4]; FIG. 2K, t-test): 0.3584
entries into the open arms of the EPM (129S6/SvEv mice [4]; [8]): comparable
time spent in the open arms of the EPM (129S6/SvEv mice [4]; [8]): comparable
entries into the open arms of the EPM vs saline (129S6/SvEv mice [4]; male 129S6/SvEv, 10 mg/kg): neither in the open arms nor entries into the open arms of the maze was significantly different
time in the open arms of the EPM vs saline (129S6/SvEv mice [4]; male 129S6/SvEv, 10 mg/kg): neither in the open arms nor entries into the open arms of the maze was significantly different
p, NSF Latency of feed, Saline vs. RS67333 (10 mg/kg) (129S6/SvEv mice [5]; FIG. 2M, t-test): 0.0108
p, NSF Food Eaten (g), Saline vs. RS67333 (10 mg/kg) (129S6/SvEv mice [5]; FIG. 2N, t-test): 0.3871
p, NSF Body Weight, Saline vs. RS67333 (10 mg/kg) (129S6/SvEv mice [5]; FIG. 2O, t-test): 0.8829
p, NSF Latency to feed (sec), RS67333 (1.5 mg/kg) vs. RS67333 (10 mg/kg) (129S6/SvEv mice [5]; [9]): 0.0820
p, NSF Latency to feed (sec), Saline vs. RS67333 (10 mg/kg) (129S6/SvEv mice [5]; [9]): 0.0010
significance (* column), NSF Latency to feed (sec), Saline vs. RS67333 (1.5 mg/kg) (129S6/SvEv mice [5]; FIG. 3 cohort, FIG. 3M, Fisher's PLSD, p cell empty): ns
latency to feed (NSF) (129S6/SvEv mice [5]; female 129S6/SvEv, 10 mg/kg): significantly reduced latency to feed
latency to approach the pellet (NSF) vs saline (129S6/SvEv mice [5]; male 129S6/SvEv, 10 mg/kg): significantly reduced latency
pKi sigma 1 (sigma 1): 8.9
pKi sigma 2 (sigma 2): 8.0
pKi for other neurotransmitter receptors [6]: less than 6.7
